Results: patent US20220380376A1, “Nitrogen Oxide-Donating PDE-5 and/or PDE-6 Inhibitor Compounds” (ILDONG PHARMACEUTICAL CO., LTD., priority 2019, published 2022)

How the values were obtained:
[1] = Plasma protein binding assay (equilibrium dialysis); assay type: in vitro ADME; details: human plasma, 2 μM, dialysis 4 hours at 37° C.
Description: The dialysis device used in this example is a 96-well equilibrium dialysis plate (Cat #1006, HT Dialysis LLC, Gales Gerry, CT), and HTD 96 a/b dialysis membrane strips (Cat #1101, MWCO 12-14 kDa, HT Dialysis LLC). The dialysis device was assembled following the manufacturer's instructions.
The dialysis membrane strips were soaked in ultra-pure water at room temperature for approximately 1 hour. Each membrane strip containing 2 membranes was separated and soaked in 20:80 ethanol/water (v/v) for approximately 20 minutes, after which they were ready for used or were stored in the solution at 2-8° C. for up to a month. Prior to experiment, the membrane was rinsed and soaked for 20 minutes in ultra-pure water.
On the day of the experiment, the plasma was thawed by running under col tap water and centrifuged at 3220 rpm for 5 minutes to remove any clos. The pH value of the resulting plasma was checked. Only plasma with pH value with 7.0-8.0 could be used.
Both test and control compounds were dissolved in DMSO to achieve 10 mM stock solutions. Working solutions (400 μM) if test and control compounds were prepared by diluting 10μ p of stock solutions with 240 μL of DMSO. Loading matrix solutions (2 μM) of both test and control compounds were prepared by diluting 5 μL of working solutions with 995 μL of blank matrix.
To prepare the loading matrix containing the test compound or control compounds, aliquots of either test compound working solutions or control compound working solution were spiked into blank matrix to achieve final test concentrations. The concentration of organic solvent in the final solutions were no more than 1% (normally 0.5%). The samples were mixture thoroughly before being used.
To prepare the time zero (TO) samples to be used for recovery determinations. 50 μL aliquots of loading matrix solution were transferred in triplicate to the sample collection plate. The samples were immediately matched with opposite blank buffer to obtain a final volume of 100 μL of 1:1 matrix/dialysis buffer (v/v) in each well. 500 μL of stop solution were added to these TO samples. They were then stored at 2-8° C. pending further processes along with other post-dialysis samples.
To load the dialysis device, an aliquot of 150 μL of the loading matrix was transferred to the donor side of each dialysis well in triplicate, and 150 μL of the dialysis buffer was loaded to the received side of the well. The dialysis was placed in humidified incubator at 37° C. with 5% CO2 on a shaking platform that rated slowly (about 100 rpm) for 4 hours.
At the end of the dialysis, aliquots of 50 μL of samples were taken from both the buffer side and the matrix side of the dialysis deice. These samples were transferred into new 96-well plates (the sample collection plates). […]

human PDE-6C = human PDE-6C (Homo sapiens, UniProt P51160); experiment: Human PDE-6C inhibition assay (fluorescence polarization); assay type: biochemical; details: human PDE6C, 100 nM FAM-cGMP, 60 minutes at room temperature
human PDE-5A1 = human PDE-5A1 (Homo sapiens, UniProt O76074); experiment: Human PDE-5A1 inhibition assay (fluorescence polarization); assay type: biochemical; details: human PDE5A1, 100 nM FAM-cGMP, 60 minutes at room temperature
[2] = system: ocular normotensive rabbits; experiment: In vivo intraocular pressure (IOP) lowering effect in rabbits; set-up: species or system New Zealand white rabbits; details: 50 μL per eye once, right eye vs vehicle in left eye, 1-10 hours post dose
Excerpt: This example illustrates the procedures and results of the intraocular pressure (IOP) lowering effect of compound 18 as compared to Latanoprostene bunod and latanoprost at different concentrations in ocular normotensive rabbits.
Forty (40) male New Zealand white rabbits were divided into 4 groups with 10 animals per group. Animals were then randomly assigned to groups based on body weight.
Latanoprostene bunod ophthalmic solution (LBN, 0.024%) and latanoprost eye drops (0.005%) were used as positive controls and dosed with the same volumes into the right eyes of the tested animals in groups 1 and 2 once.
Compound 18 was instilled into the right eyes of the tested animals in groups 3 (10 mg/mL) and 4 (20 mg/mL) at 50 μL per eye once.
All left eyes of the tested animals in each group were dosed with vehicle solution at 50 μL per eye.
The intraocular pressures (IOPs) were measured once at pre-dose and then once at 1, 2, 4, 6, 8, and 10 hours post dose for each group of animals. FIGS. 1 to 4 show the results from the IOP lowering studies for all four tested groups.

human PDE-6C, sequence (P51160 whole entry): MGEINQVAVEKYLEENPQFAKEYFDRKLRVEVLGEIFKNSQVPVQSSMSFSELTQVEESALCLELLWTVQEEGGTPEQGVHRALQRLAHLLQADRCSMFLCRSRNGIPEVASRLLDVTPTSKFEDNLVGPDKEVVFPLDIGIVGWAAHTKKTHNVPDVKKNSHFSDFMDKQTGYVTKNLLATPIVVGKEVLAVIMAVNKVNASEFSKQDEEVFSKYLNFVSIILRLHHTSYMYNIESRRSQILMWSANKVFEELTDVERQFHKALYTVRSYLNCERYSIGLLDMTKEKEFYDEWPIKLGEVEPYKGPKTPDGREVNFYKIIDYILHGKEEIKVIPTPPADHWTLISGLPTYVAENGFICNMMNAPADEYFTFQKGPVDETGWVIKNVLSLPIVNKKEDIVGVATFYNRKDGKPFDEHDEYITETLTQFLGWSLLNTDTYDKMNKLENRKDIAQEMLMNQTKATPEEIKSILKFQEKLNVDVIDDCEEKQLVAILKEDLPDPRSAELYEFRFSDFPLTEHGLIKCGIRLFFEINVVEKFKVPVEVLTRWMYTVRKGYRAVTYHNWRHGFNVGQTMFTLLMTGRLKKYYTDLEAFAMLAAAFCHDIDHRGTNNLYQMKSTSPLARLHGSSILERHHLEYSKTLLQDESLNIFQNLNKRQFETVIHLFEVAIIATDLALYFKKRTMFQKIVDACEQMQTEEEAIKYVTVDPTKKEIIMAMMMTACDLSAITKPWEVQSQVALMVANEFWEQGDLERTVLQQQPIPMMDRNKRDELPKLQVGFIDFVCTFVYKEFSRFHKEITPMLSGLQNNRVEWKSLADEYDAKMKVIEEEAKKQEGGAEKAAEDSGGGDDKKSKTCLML

| % Bound [1] [%] | IC50 (human PDE-6C) [µM] | IC50 (human PDE-5A1) [µM] | Compound | IOP lowering effect ([2]; 10 mg/mL) | IOP lowering effect ([2]; 20 mg/mL) |
| --- | --- | --- | --- | --- | --- |
| 96.01 | – | – | CCCc1nn(C)c2c(=O)[nH]c(-c3cc(S(=O)(=O)N4CC(CCCO)C4)ccc3OCC)nc12 [Compound 4, 5-(2-ethoxy-5-((3-(3-hydroxypropyl)azetidin-1-yl)sulfonyl)phenyl)-1-methyl-3-propyl-1,6-dihydro-7H-pyrazolo[4,3-d]pyrimidin-7-one] | – | – |
| 86.19 | < 0.01 | < 0.01 | CCCc1nn(C)c2c(=O)[nH]c(-c3cc(S(=O)(=O)N4CC(NCCCO)C4)ccc3OCC)nc12 [Compound 10, 5-(2-ethoxy-5-((3-((3-hydroxypropyl)amino)azetidin-1-yl)sulfonyl)phenyl)-1-methyl-3-propyl-1,6-dihydro-7H-pyrazolo[4,3-d]pyrimidin-7-one] | – | – |
| – | < 0.01 | < 0.01 | CCCc1nn(C)c2c(=O)[nH]c(-c3cc(S(=O)(=O)N4CC(CCO[N+](=O)[O-])C4)ccc3OCC)nc12 [Compound 17, 2-(1-((4-ethoxy-3-(1-methyl-7-oxo-3-propyl-6,7-dihydro-1H-pyrazolo [4,3-d]pyrimidin-5-yl)phenyl)sulfonyl)azetidin-3-yl)ethyl nitrate] | – | – |
| 99.52 | < 0.01 | < 0.01 | CCCc1nn(C)c2c(=O)[nH]c(-c3cc(S(=O)(=O)N4CC(CCCO[N+](=O)[O-])C4)ccc3OCC)nc12 [Compound 18, 3-(1-((4-ethoxy-3-(1-methyl-7-oxo-3-propyl-6,7-dihydro-1H-pyrazolo[4,3-d]pyrimidin-5-yl)phenyl)sulfonyl)azetidin-3-yl)propyl nitrate] | significantly lower the IOP | significantly lower the IOP |
| 97.53 | – | – | CCCc1nn(C)c2c(=O)[nH]c(-c3cc(S(=O)(=O)N4CC(NCCCO[N+](=O)[O-])C4)ccc3OCC)nc12 [Compound 22, 3-((1-((4-ethoxy-3-(1-methyl-7-oxo-3-propyl-6,7-dihydro-1H-pyrazolo[4,3-d]pyrimidin-5-yl)phenyl)sulfonyl)azetidin-3-yl)amino)propyl nitrate] | – | – |
